Experimental data as given in ChEMBL document CHEMBL5375982, “How Modulator Binding at the Amyloidβ-γ-Secretase Interface Enhances Substrate Binding and Attenuates Membrane Distortion” (J Med Chem, 2023).
Active and inactive are the calls of the source. The rule behind the calls is not given here.

Experiments:
Type in all cases: cell-based
[1] = molecular target: T1, Gamma-secretase (Homo sapiens) (UniProt Q96BI3+Q9NZ42+Q8WW43+P49768+Q92542+P49810); test: Modulation of gamma-secretase activity in HEK293T cells transfected with wild type APP C99 assessed as increase in processivity at 10 uM incubated for 24 to 30 hrs by ELISA; settings: filed as modulator, time 24-30 hrs
[2] = molecular target: T1, Gamma-secretase (Homo sapiens); test: Modulation of gamma-secretase activity in HEK293T cells transfected with APP C99 K28R mutant assessed as increase in processivity at 10 uM incubated for 24 to 30 hrs by ELISA; settings: filed as modulator, time 24-30 hrs
[3] = molecular target: T1, Gamma-secretase (Homo sapiens); test: Modulation of gamma-secretase activity in HEK293T cells transfected with APP C99 K28D mutant assessed as increase in processivity at 10 uM incubated for 24 to 30 hrs by ELISA; settings: time 24-30 hrs
[4] = molecular target: T1, Gamma-secretase (Homo sapiens); test: Modulation of gamma-secretase activity in HEK293T cells transfected with APP C99 K28E mutant assessed as increase in processivity at 10 uM incubated for 24 to 30 hrs by ELISA; settings: time 24-30 hrs
[5] = molecular target: T1, Gamma-secretase (Homo sapiens); test: Modulation of gamma-secretase activity in HEK293T cells transfected with APP C99 K28D mutant assessed as […] in amyloidbeta37 to amyloidbeta40 ratio at 10 uM incubated for 24 to 30 hrs by ELISA; settings: filed as modulator, time 24-30 hrs
[6] = molecular target: T1, Gamma-secretase (Homo sapiens); test: Modulation of gamma-secretase activity in HEK293T cells transfected with APP C99 K28E mutant assessed as […] in amyloidbeta37 to amyloidbeta40 ratio at 10 uM incubated for 24 to 30 hrs by ELISA; settings: filed as modulator, time 24-30 hrs

In the case of `COc1cc(/C=C2\CCCN([C@@H](C)c3ccc(F)cc3)C2=O)ccc1-n1cnc(C)c1`, the Activity [1] is reported as “Active”, the Activity [2] is reported as “Active” and the Activity [3] is reported as “inactive”. For the same compound, the Activity [4] was “inactive”, the Activity [5] was “Active” and the Activity [6] was “Active”.
